Experiments:
Experiment in all cases: KinomeScan kinase panel
Format in all cases: binding
[1] = molecular target: T1, ABL1(Y253F)-phosphorylated (Homo sapiens, UniProt P00519, Y253F)
T1 construct: purchased DiscoveRx Corporation (KinomeScan)
Summary of the method: (§1)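 Each kinase in a 442-kinase KinomeScan set is assayed with compound present at 1000 nM, and percentage-type inhibition at that level is given.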

[2] = molecular target: T2, ACVR2A (Homo sapiens, UniProt P27037)
T2 construct: purchased DiscoveRx Corporation (KinomeScan)
Summary of the method: as §1

[3] = molecular target: T3, AKT1 (Homo sapiens, UniProt P31749)
T3 construct: purchased DiscoveRx Corporation (KinomeScan)
Summary of the method: as §1

[4] = molecular target: T4, AMPK-alpha2 (Homo sapiens, UniProt P54646)
T4 construct: purchased DiscoveRx Corporation (KinomeScan)
Summary of the method: as §1

[5] = molecular target: T5, AURKB (Homo sapiens, UniProt Q96GD4)
T5 construct: purchased DiscoveRx Corporation (KinomeScan)
Summary of the method: as §1

[6] = molecular target: T6, BIKE (Homo sapiens, UniProt Q9NSY1)
T6 construct: purchased DiscoveRx Corporation (KinomeScan)
Summary of the method: as §1

[7] = molecular target: T7, BTK (Homo sapiens, UniProt Q06187)
T7 construct: purchased DiscoveRx Corporation (KinomeScan)
Summary of the method: as §1

[8] = molecular target: T8, CAMKK2 (Homo sapiens, UniProt Q96RR4)
T8 construct: purchased DiscoveRx Corporation (KinomeScan)
Summary of the method: as §1

[9] = molecular target: T9, CDK9 (Homo sapiens, UniProt P50750)
T9 construct: purchased DiscoveRx Corporation (KinomeScan)
Summary of the method: as §1

[10] = molecular target: T10, CSNK1A1 (Homo sapiens, UniProt P48729)
T10 construct: purchased DiscoveRx Corporation (KinomeScan)
Summary of the method: as §1

[11] = molecular target: T11, CSR1 (Homo sapiens, UniProt O95747)
T11 construct: purchased DiscoveRx Corporation (KinomeScan panel)
Summary of the method: as §1

[12] = molecular target: T12, CTK (Homo sapiens, UniProt P42679)
T12 construct: purchased DiscoveRx Corporation (KinomeScan)
Summary of the method: as §1

[13] = molecular target: T13, DRAK2 (Homo sapiens, UniProt O94768)
T13 construct: purchased DiscoveRx Corporation (KinomeScan)
Summary of the method: as §1

[14] = molecular target: T14, EGFR(T790M) (Homo sapiens, UniProt P00533, T790M)
T14 construct: purchased DiscoveRx Corporation (KinomeScan)
Summary of the method: as §1

[15] = molecular target: T15, FGFR (Homo sapiens, UniProt P21802)
T15 construct: purchased DiscoveRx Corporation (KinomeScan)
Summary of the method: as §1

[16] = tested on: FLT3(ITD)
Summary of the method: as §1

[17] = molecular target: T16, GRK7 (Homo sapiens, UniProt Q8WTQ7)
T16 construct: purchased DiscoveRx Corporation (KinomeScan)
Summary of the method: as §1

[18] = molecular target: T17, HIPK1 (Homo sapiens, UniProt Q86Z02)
T17 construct: purchased DiscoveRx Corporation (KinomeScan)
Summary of the method: as §1

[19] = molecular target: T18, JAK1(JH1domain-catalytic) (Homo sapiens, UniProt P23458)
T18 construct: JAK1(JH1domain-catalytic); purchased DiscoveRx Corporation (KinomeScan)
Summary of the method: as §1

[20] = molecular target: T19, MST1 (Homo sapiens, UniProt Q13043)
T19 construct: purchased DiscoveRx Corporation (KinomeScan)
Summary of the method: as §1

[21] = molecular target: T20, MYLK (Homo sapiens, UniProt Q15746)
T20 construct: purchased DiscoveRx Corporation (KinomeScan)
Summary of the method: as §1

[22] = molecular target: T21, P38-beta (Homo sapiens, UniProt Q15759)
T21 construct: purchased DiscoveRx Corporation (KinomeScan panel)
Summary of the method: as §1

[23] = molecular target: T22, PIK3CB (Homo sapiens, UniProt P42338)
T22 construct: purchased DiscoveRx Corporation (KinomeScan)
Summary of the method: as §1

[24] = molecular target: T23, PIK3CD (Homo sapiens, UniProt O00329)
T23 construct: purchased DiscoveRx Corporation (KinomeScan)
Summary of the method: as §1

[25] = molecular target: T24, PIK4CB (Homo sapiens, UniProt Q9UBF8)
T24 construct: purchased DiscoveRx Corporation (KinomeScan)
Summary of the method: as §1

[26] = molecular target: T25, PIP5K2C (Homo sapiens, UniProt Q8TBX8)
T25 construct: purchased DiscoveRx Corporation (KinomeScan)
Summary of the method: as §1

[27] = molecular target: T26, RAF1 (Homo sapiens, UniProt P04049)
T26 construct: purchased DiscoveRx Corporation
Summary of the method: as §1

[28] = molecular target: T27, RPS6KA5(kin.Dom.2-C-termimal) (Homo sapiens, UniProt O75582)
T27 construct: kin.Dom.2; purchased DiscoveRx Corporation
Summary of the method: as §1

[29] = molecular target: T28, RSK2(Kin.Dom.1-N-terminal) (Homo sapiens, UniProt P51812)
T28 construct: Kin.Dom.1; purchased DiscoveRx Corporation (KinomeScan)
Summary of the method: as §1

[30] = molecular target: T29, SBK1 (Homo sapiens, UniProt Q52WX2)
T29 construct: purchased DiscoveRx Corporation (KinomeScan)
Summary of the method: as §1

[31] = molecular target: T30, SLK (Homo sapiens, UniProt Q9H2G2)
T30 construct: purchased DiscoveRx Corporation (KinomeScan)
Summary of the method: as §1

[32] = molecular target: T31, SNARK (Homo sapiens, UniProt Q9H093)
T31 construct: purchased DiscoveRx Corporation (KinomeScan)
Summary of the method: as §1

[33] = molecular target: T32, SNRK (Homo sapiens, UniProt Q9NRH2)
T32 construct: purchased DiscoveRx Corporation (KinomeScan)
Summary of the method: as §1

[34] = molecular target: T33, SRC (Homo sapiens, UniProt P12931)
T33 construct: purchased DiscoveRx Corporation (KinomeScan)
Summary of the method: as §1

[35] = molecular target: T34, ZAK (Homo sapiens, UniProt Q9NYL2)
T34 construct: purchased DiscoveRx Corporation (KinomeScan service)
Summary of the method: as §1

T33 sequence (P12931 whole entry): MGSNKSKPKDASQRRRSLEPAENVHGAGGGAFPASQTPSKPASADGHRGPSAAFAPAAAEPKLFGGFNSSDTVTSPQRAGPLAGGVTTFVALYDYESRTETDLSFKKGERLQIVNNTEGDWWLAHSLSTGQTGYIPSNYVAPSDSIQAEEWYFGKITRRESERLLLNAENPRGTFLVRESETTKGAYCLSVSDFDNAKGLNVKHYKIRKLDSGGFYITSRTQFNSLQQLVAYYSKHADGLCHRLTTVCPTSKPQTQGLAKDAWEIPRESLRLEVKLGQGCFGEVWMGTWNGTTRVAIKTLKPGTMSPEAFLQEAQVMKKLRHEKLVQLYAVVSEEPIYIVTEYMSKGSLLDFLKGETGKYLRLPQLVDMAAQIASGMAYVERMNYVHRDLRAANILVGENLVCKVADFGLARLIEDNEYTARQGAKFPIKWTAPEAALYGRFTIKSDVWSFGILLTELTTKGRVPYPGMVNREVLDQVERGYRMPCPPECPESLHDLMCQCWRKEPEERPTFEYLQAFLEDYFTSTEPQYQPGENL
T15 sequence (P21802 458-770 limits assumed): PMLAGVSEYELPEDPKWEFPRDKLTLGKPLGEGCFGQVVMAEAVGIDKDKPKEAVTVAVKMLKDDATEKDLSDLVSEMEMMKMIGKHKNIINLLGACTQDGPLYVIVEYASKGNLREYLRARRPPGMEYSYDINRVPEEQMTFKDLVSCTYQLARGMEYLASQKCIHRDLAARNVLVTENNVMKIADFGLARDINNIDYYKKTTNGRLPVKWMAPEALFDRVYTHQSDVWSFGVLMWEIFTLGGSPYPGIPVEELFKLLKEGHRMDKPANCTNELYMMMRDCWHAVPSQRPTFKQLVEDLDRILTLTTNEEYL
T28 sequence (P51812 68-327 limits assumed): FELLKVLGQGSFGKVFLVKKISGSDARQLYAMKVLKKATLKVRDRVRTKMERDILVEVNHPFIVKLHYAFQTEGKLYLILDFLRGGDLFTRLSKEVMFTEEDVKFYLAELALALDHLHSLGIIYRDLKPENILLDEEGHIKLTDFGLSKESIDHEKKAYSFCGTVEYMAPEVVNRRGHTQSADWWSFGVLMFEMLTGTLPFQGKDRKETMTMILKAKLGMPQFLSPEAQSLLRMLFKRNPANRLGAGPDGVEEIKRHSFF
T25 sequence (Q8TBX8 whole entry): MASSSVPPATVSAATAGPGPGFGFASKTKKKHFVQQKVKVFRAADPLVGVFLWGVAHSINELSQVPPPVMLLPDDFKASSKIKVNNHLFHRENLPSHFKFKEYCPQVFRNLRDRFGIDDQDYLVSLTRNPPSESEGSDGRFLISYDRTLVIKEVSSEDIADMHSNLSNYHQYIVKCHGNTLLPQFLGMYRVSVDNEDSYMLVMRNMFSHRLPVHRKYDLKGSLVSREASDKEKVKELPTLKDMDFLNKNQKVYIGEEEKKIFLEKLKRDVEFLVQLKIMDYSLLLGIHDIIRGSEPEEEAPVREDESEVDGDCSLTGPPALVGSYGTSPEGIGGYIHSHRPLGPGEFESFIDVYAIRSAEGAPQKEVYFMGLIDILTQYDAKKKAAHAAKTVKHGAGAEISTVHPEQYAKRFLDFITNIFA
T27 sequence (O75582 426-687 limits assumed): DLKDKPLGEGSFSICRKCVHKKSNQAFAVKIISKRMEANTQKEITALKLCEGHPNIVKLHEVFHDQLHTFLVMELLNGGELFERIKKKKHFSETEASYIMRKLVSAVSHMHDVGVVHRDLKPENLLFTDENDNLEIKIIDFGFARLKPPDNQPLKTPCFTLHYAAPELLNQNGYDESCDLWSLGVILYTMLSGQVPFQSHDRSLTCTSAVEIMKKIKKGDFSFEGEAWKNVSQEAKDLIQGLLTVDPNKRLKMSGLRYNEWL
T11 sequence (O95747 whole entry): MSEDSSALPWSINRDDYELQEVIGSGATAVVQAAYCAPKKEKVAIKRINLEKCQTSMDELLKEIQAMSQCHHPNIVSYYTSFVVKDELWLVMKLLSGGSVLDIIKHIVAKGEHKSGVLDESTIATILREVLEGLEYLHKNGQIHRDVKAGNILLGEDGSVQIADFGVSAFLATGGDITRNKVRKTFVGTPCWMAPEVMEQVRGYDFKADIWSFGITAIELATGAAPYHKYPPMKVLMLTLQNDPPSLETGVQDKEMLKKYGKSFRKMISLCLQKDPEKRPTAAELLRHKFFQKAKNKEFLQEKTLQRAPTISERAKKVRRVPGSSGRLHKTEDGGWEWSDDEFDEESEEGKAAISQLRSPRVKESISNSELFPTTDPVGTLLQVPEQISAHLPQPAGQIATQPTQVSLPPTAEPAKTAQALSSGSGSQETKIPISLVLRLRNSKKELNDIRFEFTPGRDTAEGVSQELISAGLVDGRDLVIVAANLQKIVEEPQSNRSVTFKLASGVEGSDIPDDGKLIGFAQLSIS
T3 sequence (P31749 whole entry): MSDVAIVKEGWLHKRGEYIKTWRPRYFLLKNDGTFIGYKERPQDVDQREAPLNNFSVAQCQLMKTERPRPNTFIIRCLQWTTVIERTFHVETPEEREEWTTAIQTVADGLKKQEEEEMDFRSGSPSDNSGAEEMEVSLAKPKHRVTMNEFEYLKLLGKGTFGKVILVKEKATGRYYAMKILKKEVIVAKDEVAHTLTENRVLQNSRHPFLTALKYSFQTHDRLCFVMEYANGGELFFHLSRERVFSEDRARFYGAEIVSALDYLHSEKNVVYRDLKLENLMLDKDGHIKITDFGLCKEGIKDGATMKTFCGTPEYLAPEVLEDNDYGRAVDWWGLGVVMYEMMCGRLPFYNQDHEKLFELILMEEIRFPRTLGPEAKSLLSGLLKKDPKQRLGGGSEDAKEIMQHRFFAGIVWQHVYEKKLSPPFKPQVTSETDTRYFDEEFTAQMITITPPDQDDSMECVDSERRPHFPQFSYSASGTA
T12 sequence (P42679 whole entry): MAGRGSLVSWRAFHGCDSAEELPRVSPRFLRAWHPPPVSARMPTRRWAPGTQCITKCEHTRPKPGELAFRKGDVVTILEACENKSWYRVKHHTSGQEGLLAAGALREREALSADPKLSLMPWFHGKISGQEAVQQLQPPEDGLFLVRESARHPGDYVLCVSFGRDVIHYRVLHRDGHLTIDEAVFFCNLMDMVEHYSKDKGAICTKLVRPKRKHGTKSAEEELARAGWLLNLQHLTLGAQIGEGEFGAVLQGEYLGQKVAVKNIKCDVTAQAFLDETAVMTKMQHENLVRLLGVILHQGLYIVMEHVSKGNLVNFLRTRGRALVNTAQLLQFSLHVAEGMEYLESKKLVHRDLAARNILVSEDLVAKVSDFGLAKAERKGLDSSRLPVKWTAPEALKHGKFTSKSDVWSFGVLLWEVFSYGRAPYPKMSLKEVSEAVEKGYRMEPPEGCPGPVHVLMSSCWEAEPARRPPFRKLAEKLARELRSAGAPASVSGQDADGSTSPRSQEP
T4 sequence (P54646 whole entry): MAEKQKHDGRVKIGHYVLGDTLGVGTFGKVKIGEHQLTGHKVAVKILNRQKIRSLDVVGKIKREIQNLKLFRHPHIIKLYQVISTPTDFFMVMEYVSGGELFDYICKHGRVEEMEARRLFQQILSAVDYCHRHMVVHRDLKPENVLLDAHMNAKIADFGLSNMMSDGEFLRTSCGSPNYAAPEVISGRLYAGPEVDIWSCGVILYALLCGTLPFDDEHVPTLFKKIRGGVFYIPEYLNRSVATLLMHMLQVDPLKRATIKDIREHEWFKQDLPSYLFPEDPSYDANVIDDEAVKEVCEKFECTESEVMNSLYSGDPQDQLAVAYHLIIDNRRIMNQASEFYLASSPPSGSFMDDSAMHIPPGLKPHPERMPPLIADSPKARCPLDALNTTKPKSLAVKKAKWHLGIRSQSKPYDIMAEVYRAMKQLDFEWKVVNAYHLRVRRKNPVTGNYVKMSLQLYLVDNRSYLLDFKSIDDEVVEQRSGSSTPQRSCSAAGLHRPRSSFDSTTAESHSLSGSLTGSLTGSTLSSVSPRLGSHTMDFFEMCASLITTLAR
T19 sequence (Q13043 whole entry): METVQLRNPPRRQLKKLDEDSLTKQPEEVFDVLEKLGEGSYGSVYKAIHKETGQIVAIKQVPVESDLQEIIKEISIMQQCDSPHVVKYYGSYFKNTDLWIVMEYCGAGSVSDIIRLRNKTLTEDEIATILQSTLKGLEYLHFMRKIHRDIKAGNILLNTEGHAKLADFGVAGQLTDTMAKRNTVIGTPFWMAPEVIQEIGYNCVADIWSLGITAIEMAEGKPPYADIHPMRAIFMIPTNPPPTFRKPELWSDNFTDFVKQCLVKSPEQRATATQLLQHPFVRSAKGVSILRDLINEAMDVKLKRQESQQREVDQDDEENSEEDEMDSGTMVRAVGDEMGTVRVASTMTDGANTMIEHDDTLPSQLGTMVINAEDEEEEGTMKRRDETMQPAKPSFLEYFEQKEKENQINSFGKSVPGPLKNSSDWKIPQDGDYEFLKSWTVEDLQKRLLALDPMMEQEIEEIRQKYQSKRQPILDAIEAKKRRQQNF
T2 sequence (P27037 20-513): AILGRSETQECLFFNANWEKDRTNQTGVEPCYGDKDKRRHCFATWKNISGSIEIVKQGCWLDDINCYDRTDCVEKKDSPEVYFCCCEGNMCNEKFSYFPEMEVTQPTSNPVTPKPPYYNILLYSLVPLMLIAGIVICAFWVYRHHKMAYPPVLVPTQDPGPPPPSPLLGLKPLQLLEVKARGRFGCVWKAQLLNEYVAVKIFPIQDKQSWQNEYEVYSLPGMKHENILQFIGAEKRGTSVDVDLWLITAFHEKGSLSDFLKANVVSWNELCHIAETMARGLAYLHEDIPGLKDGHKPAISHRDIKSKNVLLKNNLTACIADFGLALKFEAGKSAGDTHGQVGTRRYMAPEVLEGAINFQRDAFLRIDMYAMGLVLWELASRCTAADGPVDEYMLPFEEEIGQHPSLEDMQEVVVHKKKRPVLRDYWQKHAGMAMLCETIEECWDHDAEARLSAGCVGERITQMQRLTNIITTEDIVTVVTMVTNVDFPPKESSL

## CCOP(=O)(CN1CCC(COc2cc3nccc(Oc4ccc(NC(=O)C5(C(=O)Nc6ccc(F)cc6)CC5)cc4F)c3cc2OC)CC1)OCC [Example 10, N1-[4-[[7-[[1-(diethoxyphosphorylmethyl)-4-piperidinyl]methoxyl]-6-methoxyl-4-quinolyl]oxyl]-3-fluorophenyl]-N1′-(4-fluorophenyl)cyclopropane-1,1-dicarboxamide]
[1]
  % Ctrl@1000 nM: 32 % Ctrl
[2]
  % Ctrl@1000 nM: 100 % Ctrl
[3]
  % Ctrl@1000 nM: 100 % Ctrl
[4]
  % Ctrl@1000 nM: 100 % Ctrl
[5]
  % Ctrl@1000 nM: 74 % Ctrl
[6]
  % Ctrl@1000 nM: 100 % Ctrl
[7]
  % Ctrl@1000 nM: 51 % Ctrl
[8]
  % Ctrl@1000 nM: 81 % Ctrl
[9]
  % Ctrl@1000 nM: 100 % Ctrl
[10]
  % Ctrl@1000 nM: 100 % Ctrl
[11]
  % Ctrl@1000 nM: 96 % Ctrl
[12]
  % Ctrl@1000 nM: 100 % Ctrl
[13]
  % Ctrl@1000 nM: 100 % Ctrl
[14]
  % Ctrl@1000 nM: 100 % Ctrl
[15]
  % Ctrl@1000 nM: 76 % Ctrl
[16]
  % Ctrl@1000 nM: 2.8 % Ctrl
[17]
  % Ctrl@1000 nM: 100 % Ctrl
[18]
  % Ctrl@1000 nM: 92 % Ctrl
[19]
  % Ctrl@1000 nM: 93 % Ctrl
[20]
  % Ctrl@1000 nM: 100 % Ctrl
[21]
  % Ctrl@1000 nM: 100 % Ctrl
[22]
  % Ctrl@1000 nM: 87 % Ctrl
[23]
  % Ctrl@1000 nM: 100 % Ctrl
[24]
  % Ctrl@1000 nM: 100 % Ctrl
[25]
  % Ctrl@1000 nM: 100 % Ctrl
[26]
  % Ctrl@1000 nM: 38 % Ctrl
[27]
  % Ctrl@1000 nM: 100 % Ctrl
[28]
  % Ctrl@1000 nM: 83 % Ctrl
[29]
  % Ctrl@1000 nM: 100 % Ctrl
[30]
  % Ctrl@1000 nM: 100 % Ctrl
[31]
  % Ctrl@1000 nM: 7.4 % Ctrl
[32]
  % Ctrl@1000 nM: 100 % Ctrl
[33]
  % Ctrl@1000 nM: 100 % Ctrl
[34]
  % Ctrl@1000 nM: 3.2 % Ctrl
[35]
  % Ctrl@1000 nM: 36 % Ctrl

Reference: patent US8933230B2, “Phosphorus-containing group-substituted quinoline, its preparation process, medical composition containing the compounds and application” (priority 2011, dated 2015)
